A value given as a limit tells only on which side of the number the result lay.

Experiment [1] relates to sexually experienced male rats (Sprague-Dawley rats). In words: Non-contact penile erections in sexually experienced male rats (animal model of drug-induced sexual dysfunction). The class given is in vivo. The note with it: for Reversal of fluoxetine-induced sexual dysfunction: administered acutely after 7 or 14 days of fluoxetine treatment; for Prevention of deficit in non-contact penile erections produced by chronic fluoxetine: co-administered with fluoxetine 10 mg/kg for 7 or 14 days, Example compound 3 1 mg/kg, Example compound 2 0.3 mg/kg. On the procedure: The animal model is based on the finding that sexually experienced rats that are administered an SSRI, a drug used to treat certain conditions such as depression, display a reduction in the number of non-contact penile erections. SSRI treatment is associated with sexual dysfunction in human subjects. In general, the animal model exposes sexually experienced male rats (Sprague-Dawley rats) to female rats in estrous in a novel testing arena that is not the regular housing environment.
The ability of various drugs associated with sexual dysfunction in humans to cause sexual dysfunction in the animal model was tested using three different drugs, bupropion (20 mg/kg), desipramine (10 mg/kg), and fluoxetine (10 mg/kg), or vehicle alone (0.9% saline), each administered intraperitoneally (i.p.), once per day for 14 days. After the treatment period, animals were tested for the frequency of non-contact penile erections over a 30 minute trial period.
To examine the time course of the effects of a drug that causes sexual dysfunction, rats that were handled and tested as described above were treated acutely: rats were treated with vehicle for 6 days, and on the test day (day 7) instead of vehicle, the animals received a single dose of fluoxetine in vehicle (i.p.). For a subchronic (7 day) study, fluoxetine was administered each day for 7 days and the animals were evaluated on test day 7. For the chronic 14 day study, fluoxetine was administered each day for 14 days and the animals were tested on day 14. Each fluoxetine dose was 10 mg/kg in vehicle and was delivered i.p. on each of the test days as described above.
To test the ability of a 5-HT1A antagonist to ameliorate the effects of sexual dysfunction, sexually experienced rats were administered an SSRI using an acute or subchronic (7 day) schedule and then tested for sexual function as described above.
In these experiments, rats were treated with vehicle only on days 1-13 then administered a single acute dose of 0.1 mg/kg of the compound (group 1), vehicle only for days 1-13 and a single dose of 1.0 mg/kg compound in vehicle on day 14 (group 2), only vehicle on days 1-14 (group 3), fluoxetine on days 1-14 (group 4), fluoxetine on days 1-13 and a single administration of 0.1 mg/kg of the compound and fluoxetine on day 14 (group 5); and fluoxetine on days 1-13 and a single dose of 1.0 mg/kg compound with fluoxetine on day 14 (group 6). For each group, behavior testing was performed for 30 minutes immediately following drug administration on day 14 only.
Experiments were conducted to assess the ability of a 5-HT1A antagonist to prevent the effects of SSRI treatment. Rats, as described supra, were co-administered a 5-HT1A antagonist and an SSRI. […] The administered SSRI was fluoxetine (10 mg/kg). The 5-HT1A antagonist and SSRI were co-administered for 7 or 14 days with the SSRI.

Experiment [2] has as its target T1, cloned human 5-HT1A receptors (Homo sapiens, UniProt P08908).
T1 construct: expressed in transfected cells; host or cells: CHO cells
T1 sequence (P08908 1-422): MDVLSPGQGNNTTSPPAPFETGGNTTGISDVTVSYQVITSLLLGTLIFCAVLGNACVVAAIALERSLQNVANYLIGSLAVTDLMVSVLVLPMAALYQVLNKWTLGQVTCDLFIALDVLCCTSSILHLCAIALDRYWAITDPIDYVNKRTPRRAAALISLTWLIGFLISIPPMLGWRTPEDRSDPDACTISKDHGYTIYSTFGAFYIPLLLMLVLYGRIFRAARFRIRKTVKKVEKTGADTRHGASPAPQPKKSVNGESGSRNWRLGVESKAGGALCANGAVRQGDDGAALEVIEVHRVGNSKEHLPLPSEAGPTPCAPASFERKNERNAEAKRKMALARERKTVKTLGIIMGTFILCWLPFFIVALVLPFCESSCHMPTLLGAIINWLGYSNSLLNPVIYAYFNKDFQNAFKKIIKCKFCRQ
In words: Binding to cloned human 5-HT1A receptors in CHO cells, [3H]8-OH-DPAT radioligand. Particulars: read-out: 5-HT1A Affinity Ki.

For a further experiment, the target named is T2, human 5-HT1A receptor (Homo sapiens, UniProt P08908).
T2 construct: expressed in transfected cells
T2 sequence (P08908 1-422): T1 sequence (P08908 1-422)
In words: In vitro functional activity: antagonism of 8-OH-DPAT inhibition of forskolin-stimulated cAMP production. The class given is cell-based. Particulars: antagonism of 10 nM 8-OH-DPAT inhibition of forskolin-stimulated cAMP production; read-out: 5-HT1A Antagonist Activity cAMP Assay IC50. Background: Changes in cAMP serve as a functional read-out for many G protein-coupled receptors.

Experiment [3] addresses T3, 5-HT1A (Rattus norvegicus, UniProt P19327).
T3 construct: from tissue; host or cells: whole animal (rat), behavioural model
T3 sequence (P19327 1-422): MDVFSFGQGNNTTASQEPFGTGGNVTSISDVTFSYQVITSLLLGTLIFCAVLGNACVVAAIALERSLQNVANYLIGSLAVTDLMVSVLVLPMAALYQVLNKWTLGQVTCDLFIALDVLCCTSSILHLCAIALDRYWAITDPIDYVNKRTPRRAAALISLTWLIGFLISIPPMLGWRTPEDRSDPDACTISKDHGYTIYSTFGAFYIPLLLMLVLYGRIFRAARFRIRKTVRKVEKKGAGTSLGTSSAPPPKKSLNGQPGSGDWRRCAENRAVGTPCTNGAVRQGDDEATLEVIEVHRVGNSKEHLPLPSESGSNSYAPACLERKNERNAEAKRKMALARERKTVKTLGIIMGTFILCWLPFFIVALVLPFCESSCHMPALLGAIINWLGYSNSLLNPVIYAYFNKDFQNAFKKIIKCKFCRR
In words: Fixed Responding Model, in vivo 5-HT1A antagonism of 8-OH-DPAT-induced decrease in response rate. Also noted: species or system rats. On the procedure: The ability of the compounds to function in vivo as 5-HT1A antagonists was assessed in rats using a Fixed Responding Model (D. Blackman, in “Operant Conditioning: An Experimental Analysis of Behavior”, J. Butcher, ed., Methuen and Co., Ltd., London). In this model rats are trained to respond (lever pressing) under a fixed-ratio 30 schedule of food presentation in order to receive a food pellet reinforcer. […] The 5-HT1A antagonist activity of a test compound is determined by measuring its ability to antagonize this agonist-induced decrease in response rate.

Experiment [4] concerns the target T3, 5-HT1A. In words: Duration of action in the Fixed Responding Model. The class given is in vivo, rats. From the text: All drug and vehicle administrations were made by the subcutaneous route.

In the case of `COc1ccccc1N1CCN(CCN(C(=O)C2CCCCC2)c2ccccn2)CC1` [Example compound 2, N-[2-[4-(2-methoxyphenyl)-1-piperazinyl]ethyl]-N-(2-pyridinyl)cyclohexanecarboxamide], in experiment [1], the “Reversal of fluoxetine-induced sexual dysfunction” value is “complete and significant reversal”; the “Prevention of deficit in non-contact penile erections produced by chronic fluoxetine” value is on record as “prevented the deficit in non-contact penile erections”. The “Effect on drug-induced sexual dysfunction” value in experiment [1] (single acute dose after a period of drug-induced sexual dysfunction) is recorded as “ameliorated sexual dysfunction”.
As for “(R)-N-(2-methyl-(4-indolyl-1-piperazinyl)ethyl)-N-(2-pyridinyl)cyclohexanecarboxamide [Example compound 3]”, in experiment [1], the “Reversal of fluoxetine-induced sexual dysfunction” value was “complete and significant reversal”; the “Prevention of deficit in non-contact penile erections produced by chronic fluoxetine” value is “prevented the deficit in non-contact penile erections”. For the same compound, in experiment [1] (single dose 0.1 mg/kg on day 14 of fluoxetine 10 mg/kg/day i.p.), the “Reversal of deficits in number of non-contact penile erections” value was “full reversal”. The “Reversal of deficits in number of non-contact penile erections” value in experiment [1] (single dose 1.0 mg/kg on day 14 of fluoxetine 10 mg/kg/day i.p.) was “full reversal”.
As to `C[C@H](CN(C(=O)c1ccc(C#N)cc1)c1ccccn1)N1CCN(c2cccc3c2OCCO3)CC1` [Example 1, (R)-4-Cyano-N-{2-[4-(2,3-Dihydro-Benzo[1,4]dioxin-5-yl)-Piperazin-1-yl]-Propyl}-N-Pyridin-2-yl-Benzamide], in experiment [2], the Ki (commonly the equilibrium dissociation constant of an inhibitor or competing ligand from its target) is 1.6 nM. Also, the IC50 (usually the concentration that gives 50% inhibition) on human 5-HT1A receptor stood at 25 nM. Moreover, the “Reversal of decrease in response rate induced by 8-OH-DPAT” value at 5-HT1A [3] (1 mg/kg dose, 0.3 mg/kg 8-OH-DPAT) is reported as “completely reverses”. In addition, the “Response Rate” value at 5-HT1A [3] (8-OH-DPAT (0.3 mg/kg sc) + Example compound 1 (1 mg/kg sc), vehicle control 2.4 ± 0.5) is given as 2.5 ± 0.2 responses/second. For the same compound, the “Antagonism of agonist-induced decrease in responding” value at 5-HT1A [4] (30 minutes after administration) is “completely antagonize”. The Duration of action on 5-HT1A [4] (Fixed Responding Model, sc) was greater than 4 h. The “Dose Which Shifts Agonist Dose-response Curve by 10-fold” value at 5-HT1A [4] (administered 30 minutes prior to 8-OH-DPAT) is 1.0 mg/kg, sc. In addition, the “5-HT1A antagonist effect on response rate” value is “complete 5-HT1A antagonist effects” at 5-HT1A [4] (agonist given 2 hours following test drug administration) and “complete antagonism” on 5-HT1A [4] (four hours post-administration). Besides, the “% Response Rate, 0.5 hour pretreatment” value at 5-HT1A [4] (test compound sc (Table 3 dose) 0.5 hour before 0.3 mg/kg 8-OH-DPAT, 100% = vehicle control response rate) came to 100 ± 7%. For the same compound, the “% Response Rate, 2 hour pretreatment” value on 5-HT1A [4] (test compound sc (Table 3 dose) 2 hours before 0.3 mg/kg 8-OH-DPAT, 100% = vehicle control response rate) was determined as 118 ± 13%. At 5-HT1A [4] (test compound sc (Table 3 dose) 4 hours before 0.3 mg/kg 8-OH-DPAT, 100% = vehicle control response rate), the “% Response Rate, 4 hour pretreatment” value was 99 ± 16%.
For `CNCCC(Oc1ccc(C(F)(F)F)cc1)c1ccccc1` (stereo not drawn) [fluoxetine, N-methyl-3-(p-trifluoromethylphenoxy)-3-phenylpropylamine, reference compound], the “Sexual dysfunction (number of non-contact penile erections in 30 minutes)” value in experiment [1] (chronic (14 days) fluoxetine 10 mg/kg i.p.) and in experiment [1] (sub-chronic (7 days) fluoxetine 10 mg/kg i.p.) was “significant increase in sexual dysfunction” throughout.

The values above are taken from US7425558B2, “Serotonergic agents for treating sexual dysfunction” (Wyeth, priority 2000, dated 2008).
